Reference: a melting point compilation (Tetko et al.; mined from patent text by program, amines drawn as free bases though some values may be those of a salt)

melting point | SMILES
276 to 278 °C | O=C(Nc1nc(NC(=O)c2cccnc2)nc(NC(=O)c2cccnc2)n1)c1cccnc1
56 to 58 °C | CN(C)c1ccc(/C=C/c2ccccc2F)c2ccccc12
193 to 195 °C | COc1ccc2c3c1c(C)c(-c1ccc(O)cc1)n3CC(CCN1CCN(c3cc(C)ccn3)CC1)O2 (stereo unspecified)
246 to 247 °C | COc1cc2c(c3c1OC(C)(C)C3)C(c1cccc(NC(C)=O)c1)=NC(C)(C)C2
179 to 180 °C | CS(=O)(=O)c1ccc(-n2cc(C(F)F)nc2-c2ccc(Cl)cc2)cc1
212 °C | CCOc1ncnc(OCC)c1NC(N)=S
181 to 186 °C | CN(C)N1CSC(=CCc2cc(C(C)(C)C)c(O)c(C(C)(C)C)c2)C1=O
118 to 120 °C | Cc1cc2c(-c3cccc(Cl)c3)nc(Cl)nc2s1
192 to 194 °C | COc1cc(-c2ccccc2F)c(Cl)cc1C(=O)N1Cc2ccc(C(=O)O)n2Cc2ccccc21
104 to 109 °C | CCCNC(=O)c1ccc(C)c(-c2nc(N(C)CCCN(C)C)nc3c2ccc(=O)n3-c2c(F)cccc2F)c1
123 to 124 °C | N#CC(C=O)=Cc1ccsc1
109 to 110 °C | Cc1cc(COC2CCCO2)nc(N)n1 (stereo unspecified)
135 to 138 °C | Brc1ccc2c(c1)C=NC=CN2
219 °C | O=[N+]([O-])c1ccc(-n2nc(CO)c3c2CCCC3)cc1
152 to 153 °C | CC(C)(NC(=O)C(CO)NC(=O)c1ccccc1)c1ccccc1 (stereo unspecified)
124 to 125 °C | O=C1NC(=O)C(c2ccc3c(c2)CCC3)S1 (stereo unspecified)
119 to 120 °C | COC(=O)Cc1ccccc1OCc1ccc(OCc2nc(-c3ccccc3)sc2C)nc1
237 to 240 °C | O=[N+]([O-])c1ccc(NC2CC2)nc1Nc1ccc2[nH]ncc2c1
270 °C | O=C1c2nccnc2C(O)N1c1ccc2ccc(Cl)nc2n1 (stereo unspecified)
110 to 111 °C | COC(=O)c1cc(-c2nnn(Cc3ccc(OC)cc3)n2)ccc1OC
211 to 214 °C | COc1cc2c(cc1O)c(-c1cc3cccnc3n1S(=O)(=O)c1ccc(C)cc1)cn2C
91 to 94 °C | CC(F)(C(=O)O)c1ccc(OS(=O)(=O)C(F)(F)F)cc1 (stereo unspecified)
128 to 136 °C | Cc1cc(-c2ccccc2C#N)ccc1[N+](=O)[O-]
196 °C | O=C(CC(F)(F)F)N[C@H]1CC[C@H](CCN2CCN(c3nccc4c3CCO4)CC2)CC1

melting point | SMILES
85 to 87 °C | COc1ccc(C[C@@H](COC(C)=O)NC(=O)c2ccnc(-n3nc(-c4cccnc4)c4ccccc4c3=O)c2)cc1OC
70 to 75 °C | CSc1ncc2nc(C)nc(Nc3ccc(F)c(Cl)c3)c2n1
69 to 70 °C | Cc1nn(-c2ccccc2)c(C)c1CC#N
300 to 310 °C | COc1ccc(-n2nc3c(-c4ccccc4)c(C)[nH]cc-3c2=O)cc1
152 °C | Cc1c(CC(=O)O)cccc1C(=O)c1ccc(Cl)cc1
220 to 223 °C | COc1ccc(-c2cnc(NS(=O)(=O)c3ccc(C)cc3)nc2)cc1
178 to 179 °C | COc1cc(NC(=O)N[C@H]2CCCCNC2=O)c(O)c(C(C)(C)C)c1
183 to 184 °C | Cn1c(=O)c2c(nc(Cl)n2Cc2ccc(F)cc2)n(C)c1=O
242 to 246 °C | O=[PH]1Cc2ccc3ccccc3c2-c2c(ccc3ccccc23)C1
132 to 134 °C | CC(C)(C)OC(=O)N[C@@H]1C(=O)N(CCOCc2ccccc2)c2ccccc2-c2ccccc21
80 to 81 °C | Cc1ccccc1CCC(=NO)C(=O)C(F)(F)F
191 to 192 °C | O=C(c1ccc(Cc2ccc(F)cc2)o1)c1occ(Br)c(=O)c1O
190 °C | CC(C)(C)CC1N(C(c2ccccc2)C(O)c2ccccc2)C(C(=O)NC2CCC(O)CC2)C(c2cccc(Cl)c2F)C12C(=O)Nc1cc(Cl)ccc12 (stereo unspecified)
153 to 155 °C | CCc1c(-c2ccc(OC)cc2)c2c(C(=O)OC)c(C(=O)OC)c3cc(OC)cc1n32
191 to 193 °C | CCCc1nc(N2CCc3ccccc3CC2)c(C#N)c(=O)[nH]1
284 to 286 °C | COc1ccc2nc3c(c(-c4ccc(F)cc4)c2c1)CNC3=O
214 °C | Cc1cc(I)cc(C(=O)O)c1N
90 to 92 °C | COC(=O)c1c(C)sc2cc(CCn3ccnc3)ccc12
117 °C | OC(CN1CCNC1=S)c1cccc(C(F)(F)F)c1 (stereo unspecified)
135 to 136 °C | CN1C(=O)NC(=O)C1O (stereo unspecified)
107 °C | O=CC1CCC(C2CC[Si](c3ccccc3)(c3ccccc3)CC2)CC1 (stereo unspecified)
87 to 89 °C | O=C1C=C(Oc2ccc(C(F)(F)F)cc2)C(O)O1 (stereo unspecified)
147 to 149 °C | CCOC(=O)c1cnc2c(c(C)nn2-c2ccccn2)c1N
125 to 128 °C | CCN(CCCc1coc2c(OC)cccc12)C1COc2c(F)ccc(C(N)=O)c2C1 (stereo unspecified)

melting point | SMILES
195 to 197 °C | COc1cc(N2CCN(C)CC2)c2oc(C(=O)Nc3ccc(N4CCN(C(=O)CCO)CC4)cc3)cc(=O)c2c1
157 to 158 °C | CCSNc1c(C#N)cnn1-c1c(Cl)cc(C(F)(F)F)cc1Cl
174 to 175 °C | COc1ccc(NC(=O)NC2CCN(Cc3ccccc3)CC2)c(CCc2cc(C(C)(C)C)c(O)c(C(C)(C)C)c2)c1
215 °C | Cc1ccc2c(c1)C=Cc1cc(C)ccc1C2c1cn(-c2cc(N(C)CC(=O)Nc3nc(CC(=O)O)cs3)ncn2)c(=O)[nH]c1=S
257 to 258 °C | Cc1c(C(=O)O)c(=O)c(Br)c(-c2ccccc2)n1C
150 to 152 °C | COc1ccc(C=Cc2ncn(CC(O)(Cn3cncn3)c3ccc(F)cc3F)n2)cc1 (stereo unspecified)
175 °C | CCN1CC(=O)Nc2cc(Nc3ncc(Cl)c(Nc4ccccc4S(=O)(=O)C(C)C)n3)c(OC)cc2C1
93 to 95 °C | CCOC(=O)CNC(=O)[C@H](CSCc1ccccc1)NC(=O)OCc1ccccc1
93 to 94 °C | COc1ccc(NC(=O)OC(C)(C)C)cc1
126 to 128 °C | CCCCOCCOc1ccc(-c2ccc(N3CC(C)C(C)C3)c(C=C(C)C(=O)O)c2)cc1 (stereo unspecified)
189 to 193 °C | Cc1[nH]c(=O)n(-c2cc(C(=O)OC(C)C)c(Cl)cc2F)c(=O)c1C#N
60.5 to 61.5 °C | COc1ccc(C=C(C(=O)C2CC2)C(=O)C2CC2)cc1
235 to 237 °C | O=[N+]([O-])c1cnn2c(-c3cccs3)ccnc12
100 °C | CCCCCCCCCCCCCC(=O)c1cc(O)c(C)c(C)c1O
186 to 188 °C | COC(=O)c1cc(C(=O)OC)nc(O)n1
45 to 47 °C | Cc1ccc(F)cc1C=S
141 to 144 °C | CC1CC(=O)c2cc(OCc3ccc4ccccc4n3)cnc2C1 (stereo unspecified)
> 225 °C | CC(C)(C)c1cc(C=C2SC(=S)N(N)C2=O)ccc1O
233 to 235 °C | CCC(=O)NC[C@H]1CN(c2ccc3c(c2)CCCc2cn[nH]c2-3)C(=O)O1
154 to 156 °C | O=C(c1ccc(Oc2ccc(S(=O)c3ccc(Oc4ccc(C(=O)C(Cl)(Cl)Cl)cc4)cc3)cc2)cc1)C(Cl)(Cl)Cl
158 to 160 °C | O=C(O)c1cccc(Oc2ccc(C(=O)c3ccc(F)cc3)cc2)c1
115 °C | c1ccc(OCCSCc2nnc(-c3ccc(OCc4ccccn4)cc3)o2)cc1
306 to 307 °C | Cc1sc2nc3ccc(C#N)cn3c(=O)c2c1C
154 to 157 °C | CCOC(=O)CCNC(=O)CCNC(=O)c1csc(NC(=N)N)n1

melting point | SMILES
76 to 77 °C | CC(=O)OCCOc1ncc(Cl)c(N)c1Cl
179 to 180 °C | CCCOc1ccc2c(c1)C(c1ccccc1OCCC)C(C(=O)O)C2c1ccc2c(c1)OCO2 (stereo unspecified)
185 to 190 °C | CN1c2ccc(-c3cccc4ccccc34)cc2Sc2cc(-c3cccc4ccccc34)ccc21
151 to 153 °C | COC(C)c1c(C(C)C)nc(C(C)C)c(CO)c1-c1ccc(F)cc1 (stereo unspecified)
202 to 203 °C | O=C1NC(=O)c2ccc(I)cc2/C1=C/Nc1ccc(CN2CCCCC2)cc1
142 to 144 °C | CC(=NOCCO)c1ccc(-c2ccc(C)cc2)cc1
205 to 207 °C | O=C(NCc1ccc(F)cc1)c1cn2nc(N3CCN(C(=O)c4ccccc4C(F)(F)F)CC3)ccc2n1
44.5 to 47.5 °C | Cn1cccc1CN1CCCC1=O
> 300 °C | O=C1Nc2ccccc2C1=c1[nH]c(=O)c(=Cc2ccc(OCc3ccccc3)cn2)[nH]c1=O
138 to 139 °C | OCC#Cc1cccc2ccncc12
161 to 163 °C | CCOC(=O)c1cnc2c3ccccc3c(CC)cn2c1=O
172 to 174 °C | COc1ccc2cc(C(=O)CNC(=O)c3ccccc3)ccc2c1
171 °C | CC(=O)c1c(NC(=O)c2ccc(C)cc2)cccc1C(F)(F)F
55 to 57 °C | CCCCCCCCCCNC(=O)c1ccccc1[N+](=O)[O-]
204 to 206 °C | O=C(CNc1ccc2[nH]c(=O)oc2c1)N1CCC(Cc2ccccc2)CC1
153 to 154 °C | O=C(NCC(F)(F)F)c1ccc(C=NO)cc1
105 to 107 °C | CC1CC(N)=NN1c1cccc(Cl)n1 (stereo unspecified)
128 °C | Cc1ccc(S(=O)(=O)N2[C@@H](c3nc(C)no3)CC[C@H]2c2ccc(F)cc2)cc1 (racemic)
> 250 °C | COc1ccc(-c2[nH]c(-c3ccc(N)c(C)c3)nc2C(=O)Nc2nccs2)cc1
84 to 86 °C | CCN1CCCC(NC(=O)c2cc(C)on2)C1 (stereo unspecified)
74 to 77 °C | CNC(=S)NS(=O)(=O)c1cc(CCNC(=O)/C=C/c2cccs2)ccc1OC
149 to 151 °C | CN(Cc1nc(-c2cc(C(C)(C)C)c(O)c(C(C)(C)C)c2)cn1COCC[Si](C)(C)C)c1ccc([N+](=O)[O-])cc1

SMILES | melting point
COC12CC(COS(=O)(=O)c3ccc(C)cc3)CN(C)C1Cc1cn(C(C)(C)C)c3cccc2c13 (stereo unspecified) | 150 to 152 °C
CC(=O)Nc1cccc(/C=C/C(=O)N2CC(CCl)c3ccc([N+](=O)[O-])cc32)c1 (stereo unspecified) | 229 to 230 °C
CCCC12COC(C=O)(OC1)OC2 | 117 to 118 °C
O=C(OCC(F)(F)F)c1ncn2c1CN=C(c1ccccc1)c1cc(Br)ccc1-2 | 202 to 204 °C
O=[N+]([O-])c1ccc2c(c1)CCNCC2 | 53 to 56 °C
CC(C)(C)c1ccc(N2CCNCC2)cc1 | 48 to 52 °C
O=C(O)c1cc(CBr)on1 | 143 to 148 °C
